Patent publication US20240182869A1 (priority 2021, published 2024)
Read-outs that look alike come from different tables or passages of the source.

Assays:
[1] = test system: C. perfringens strain CP6; type: in vivo, Ross x Ross broiler chickens; details: for Adjusted FCR: adjusted for mortality
[2] = test system: C. perfringens strain CP6; type: in vivo, Ross x Ross broiler chickens; details: T3 BMD 55 gm/metric ton in feed, C. perfringens challenge; for Adjusted FCR: adjusted for mortality
C. perfringens [3] = type: cell-based, Clostridium perfringens
C. perfringens [4] = type: cell-based, Clostridium perfringens; remark: listed apart in the source
C. perfringens isolates = type: cell-based, Clostridium perfringens
[5] = Day 0 to 14, T3 BMD 55 gm/metric ton, C. perfringens challenge
[6] = Day 0 to 22, T3 BMD 55 gm/metric ton, C. perfringens challenge
[7] = Day 0 to 28, T3 BMD 55 gm/metric ton, C. perfringens challenge
[8] = T3 BMD 55 gm/metric ton, C. perfringens challenge, DOT 22

Bacitracin methylene disalicylate [Bacitracin Methylene Disalicylate (BMD)]
Feed Intake [1, 5]: 4.55A Kg/Cage | Non-Adjusted FCR [1, 5]: 1.353AB | Weight Gain [1, 5]: 0.338A kg | Adjusted FCR [1, 5]: 1.353AB | Feed Intake [1, 6]: 10.47A Kg/Cage | Non-Adjusted FCR [1, 6]: 1.403AB | Weight Gain [1, 6]: 0.776A kg | Adjusted FCR [1, 6]: 1.361AB | Feed Intake [1, 7]: 15.93A Kg/Cage | Non-Adjusted FCR [1, 7]: 1.483B | Overall Mortality [1, 7]: 3.33AB Percent | Weight Gain [1, 7]: 1.154A kg | Adjusted FCR [1, 7]: 1.453A | Lesion Scores Dunn's All-Pairwise Comparisons Test [1, 8]: 13.83A | Lesion Scores Kruskal-Wallis One-Way AOV (Mean Rank) [1, 8]: 13.83 | Lesion Scores Mean Score (Hofacre, 1998) [1, 8]: 0.33A | FCR to DOT 28 versus challenge control (T2) ([1]; both doses (T4 & T5) and BMD (T3)): significantly better than the challenge control | Feed Intake ([2]; Day 0 to 14): 4.87A Kg/Cage | Non-Adjusted FCR ([2]; Day 0 to 14): 1.217AB | Weight Gain ([2]; Day 0 to 14): 0.430A ^ kg | Adjusted FCR ([2]; Day 0 to 14): 1.186AB | Feed Intake ([2]; Day 0 to 22): 11.55AB Kg/Cage | Non-Adjusted FCR ([2]; Day 0 to 22): 1.662BC | Weight Gain ([2]; Day 0 to 22): 0.861AB kg | Adjusted FCR ([2]; Day 0 to 22): 1.470AB | Feed Intake ([2]; Day 0 to 28): 16.095BC Kg/Cage | Non-Adjusted FCR ([2]; Day 0 to 28): 1.867BC | Overall Mortality ([2]; Day 0 to 28): 24.00AB Percent | Weight Gain ([2]; Day 0 to 28): 1.236AB kg | Adjusted FCR ([2]; Day 0 to 28): 1.581A | NE Percent Mortality [2]: 18.00A Percent | Lesion Scores Dunn's All-Pairwise Comparisons Test ([2]; DOT 22): 33.00AB | Lesion Scores Kruskal-Wallis One-Way AOV (Mean Rank) ([2]; DOT 22): 33.00 | Lesion Scores Mean Score (Hofacre, 1998) ([2]; DOT 22): 0.60AB | NE Percent Mortality ([2]; listed as BMD): 18%

Clostridium phage vB_CpeM_ACP45
Cocktail MOI (C. perfringens [3]): 0.01 | Individual MOI (C. perfringens [3]): 0.01 | Virulence Index (C. perfringens [4]): 0.91

Clostridium phage vB_CpeM_AE3110
Cocktail MOI (C. perfringens [3]): 0.01 | Individual MOI (C. perfringens [3]): 0.1 | Virulence Index (C. perfringens [4]): 0.24

Clostridium phage vB_CpeM_SMS460
Cocktail MOI (C. perfringens [3]): 0.001 | Individual MOI (C. perfringens [3]): 0.01 | Virulence Index (C. perfringens [4]): 0.95 | Clostridium perfringens strains capable of being infected or lysed (host range, FIG. 2) (C. perfringens isolates): ATCC 13124, Q143.CN7, JBCNJ055, Q100,CN13, Q159.4C, JBFR063, M030.1C, CP_UoA_CA_39, CP_UoA_CA_24, JBCNI056, JBCNC058, JBCNC056 and CP_UoA_CA_132

Clostridium phage vB_CpeP_ACP5
Cocktail MOI (C. perfringens [3]): 0.001 | Individual MOI (C. perfringens [3]): 0.01 | Virulence Index (C. perfringens [4]): 0.86

Clostridium phage vB_CpeP_ACP8
Cocktail MOI (C. perfringens [3]): 0.001 | Individual MOI (C. perfringens [3]): 0.01 | Virulence Index (C. perfringens [4]): 0.92

Clostridium phage vB_CpeP_ACP10
Cocktail MOI (C. perfringens [3]): 0.001 | Individual MOI (C. perfringens [3]): 0.1 | Virulence Index (C. perfringens [4]): 0.19

Clostridium phage vB_CpeP_ACP11
Cocktail MOI (C. perfringens [3]): 0.01 | Individual MOI (C. perfringens [3]): 0.1 | Virulence Index (C. perfringens [4]): 0.03

Clostridium phage vB_CpeP_ACP22
Cocktail MOI (C. perfringens [3]): 0.01 | Individual MOI (C. perfringens [3]): 0.1 | Virulence Index (C. perfringens [4]): 0.14

Clostridium phage vB_CpeP_MN6171
Cocktail MOI (C. perfringens [3]): 0.01 | Individual MOI (C. perfringens [3]): 0.01 | Virulence Index (C. perfringens [4]): 0.19

Clostridium phage vB_CpeP_VLR28
Cocktail MOI (C. perfringens [3]): 0.001 | Individual MOI (C. perfringens [3]): 0.01 | Virulence Index (C. perfringens [4]): 0.18

Clostridium phage vB_CpeS_RO96
Cocktail MOI (C. perfringens [3]): 0.01 | Individual MOI (C. perfringens [3]): 0.01 | Virulence Index (C. perfringens [4]): 0.67
